Organism: Rattus norvegicus
Assay: Open TG-GATES - Regimen: Single
Type: toxicity, organism-based, Sprague-Dawley
Parameters: regimen Single, gender Male, age 6 weeks
Conditions: in vivo, po, 1000 mg/kg, route gavage, dose level High; for APTT / Bas / Eos / Fbg / Hb / Ht / Lym / MCH / MCHC / MCV / Mono / Neu / PT / Plat / RBC / Ret / WBC: tissue Blood; for KIDNEY_L / KIDNEY_R / KIDNEY_TOTAL: tissue Kidney; for LIVER: tissue Liver; for A/G / ALP / ALT / AST / BUN / CRE / Ca / Cl / DBIL / GLC / IP / K / LDH / Na / PL / RALB / TBIL / TC / TG / TP / gamma-GTP: tissue Plasma

SMILES: COC1=CC(=O)C[C@@H](C)[C@]12Oc1c(Cl)c(OC)cc(OC)c1C2=O [GRISEOFULVIN]
- TERMINAL_BW (3 h): 213.3 g
- APTT (3 h): 19.4 s
- Bas (3 h): 0%
- Eos (3 h): 1%
- Fbg (3 h): 212.2 mg/dL
- Hb (3 h): 12.2 g/dL
- Ht (3 h): 35.6%
- Lym (3 h): 78.4%
- MCH (3 h): 21.9 pg
- MCHC (3 h): 34.3%
- MCV (3 h): 63.7 fL
- Mono (3 h): 3%
- Neu (3 h): 17%
- PT (3 h): 13.2 s
- Plat (3 h): 124.4 x10_4/uL
- RBC (3 h): 557.4 x10_4/ul
- Ret (3 h): 8.3%
- WBC (3 h): 88.7 x10_2/uL
- KIDNEY_L (3 h): 0.9 g
- KIDNEY_R (3 h): 0.9 g
- KIDNEY_TOTAL (3 h): 1.9 g
- LIVER (3 h): 9.6 g
- A/G (3 h): 1.9
- ALP (3 h): 900 IU/L
- ALT (3 h): 36 IU/L
- AST (3 h): 66.6 IU/L
- BUN (3 h): 10.6 mg/dL
- CRE (3 h): 0.3 mg/dL
- Ca (3 h): 11 mg/dL
- Cl (3 h): 103.6 meq/L
- DBIL (3 h): 0.2 mg/dL
- GLC (3 h): 184.2 mg/dL
- IP (3 h): 8.2 mg/dL
- K (3 h): 4 meq/L
- LDH (3 h): 128.4 IU/L
- Na (3 h): 140.4 meq/L
- PL (3 h): 179.2 mg/dL
- RALB (3 h): 3.4 g/dL
- TBIL (3 h): 0.3 mg/dL
- TC (3 h): 86 mg/dL
- TG (3 h): 122.6 mg/dL
- TP (3 h): 5.2 g/dL
- gamma-GTP (3 h): 1.6 IU/L
- TERMINAL_BW (6 h): 211 g
- APTT (6 h): 18.5 s
- Bas (6 h): 0%
- Eos (6 h): 1%
- Fbg (6 h): 211.2 mg/dL
- Hb (6 h): 12.7 g/dL
- Ht (6 h): 37.4%
- Lym (6 h): 75.6%
- MCH (6 h): 21.9 pg
- MCHC (6 h): 34%
- MCV (6 h): 64.3 fL
- Mono (6 h): 4%
- Neu (6 h): 19%
- PT (6 h): 13.3 s
- Plat (6 h): 123.4 x10_4/uL
- RBC (6 h): 582 x10_4/ul
- Ret (6 h): 7.7%
- WBC (6 h): 90 x10_2/uL
- KIDNEY_L (6 h): 1 g
- KIDNEY_R (6 h): 1 g
- KIDNEY_TOTAL (6 h): 2 g
- LIVER (6 h): 9.2 g
- A/G (6 h): 1.7
- ALP (6 h): 994.4 IU/L
- ALT (6 h): 34 IU/L
- AST (6 h): 66.8 IU/L
- BUN (6 h): 10.4 mg/dL
- CRE (6 h): 0.3 mg/dL
- Ca (6 h): 10.8 mg/dL
- Cl (6 h): 103.2 meq/L
- DBIL (6 h): 0.092 mg/dL
- GLC (6 h): 204 mg/dL
- IP (6 h): 9.1 mg/dL
- K (6 h): 4.1 meq/L
- LDH (6 h): 144.2 IU/L
- Na (6 h): 141 meq/L
- PL (6 h): 154.6 mg/dL
- RALB (6 h): 3.3 g/dL
- TBIL (6 h): 0.2 mg/dL
- TC (6 h): 82.8 mg/dL
- TG (6 h): 45 mg/dL
- TP (6 h): 5.3 g/dL
- gamma-GTP (6 h): 1.4 IU/L
- TERMINAL_BW (9 h): 207.4 g
- APTT (9 h): 17.9 s
- Bas (9 h): 0%
- Eos (9 h): 0.8%
- Fbg (9 h): 202.4 mg/dL
- Hb (9 h): 12.4 g/dL
- Ht (9 h): 36.1%
- Lym (9 h): 75.2%
- MCH (9 h): 21.5 pg
- MCHC (9 h): 34.3%
- MCV (9 h): 62.8 fL
- Mono (9 h): 2.2%
- Neu (9 h): 21.6%
- PT (9 h): 13.9 s
- Plat (9 h): 113.3 x10_4/uL
- RBC (9 h): 575.8 x10_4/ul
- Ret (9 h): 7.7%
- WBC (9 h): 71.8 x10_2/uL
- KIDNEY_L (9 h): 0.9 g
- KIDNEY_R (9 h): 1 g
- KIDNEY_TOTAL (9 h): 1.9 g
- LIVER (9 h): 8.4 g
- A/G (9 h): 1.8
- ALP (9 h): 1031 IU/L
- ALT (9 h): 31.4 IU/L
- AST (9 h): 67.6 IU/L
- BUN (9 h): 10.8 mg/dL
- CRE (9 h): 0.3 mg/dL
- Ca (9 h): 10.8 mg/dL
- Cl (9 h): 104.4 meq/L
- DBIL (9 h): 0.07 mg/dL
- GLC (9 h): 186.4 mg/dL
- IP (9 h): 10.1 mg/dL
- K (9 h): 3.9 meq/L
- LDH (9 h): 153.2 IU/L
- Na (9 h): 142.2 meq/L
- PL (9 h): 134.2 mg/dL
- RALB (9 h): 3.5 g/dL
- TBIL (9 h): 0.1 mg/dL
- TC (9 h): 74.2 mg/dL
- TG (9 h): 26.8 mg/dL
- TP (9 h): 5.5 g/dL
- gamma-GTP (9 h): 1.2 IU/L
- TERMINAL_BW (24 h): 222.6 g
- APTT (24 h): 18.9 s
- Bas (24 h): 0%
- Eos (24 h): 0.8%
- Fbg (24 h): 206.4 mg/dL
- Hb (24 h): 13.1 g/dL
- Ht (24 h): 39.3%
- Lym (24 h): 79.2%
- MCH (24 h): 21.9 pg
- MCHC (24 h): 33.4%
- MCV (24 h): 65.5 fL
- Mono (24 h): 2.6%
- Neu (24 h): 16.8%
- PT (24 h): 13 s
- Plat (24 h): 123.4 x10_4/uL
- RBC (24 h): 600.4 x10_4/ul
- Ret (24 h): 8%
- WBC (24 h): 97.5 x10_2/uL
- KIDNEY_L (24 h): 1 g
- KIDNEY_R (24 h): 1 g
- KIDNEY_TOTAL (24 h): 2 g
- LIVER (24 h): 10.5 g
- A/G (24 h): 1.6
- ALP (24 h): 1124.8 IU/L
- ALT (24 h): 39.8 IU/L
- AST (24 h): 69.8 IU/L
- BUN (24 h): 13.2 mg/dL
- CRE (24 h): 0.4 mg/dL
- Ca (24 h): 10.9 mg/dL
- Cl (24 h): 104 meq/L
- DBIL (24 h): 0.1 mg/dL
- GLC (24 h): 212.4 mg/dL
- IP (24 h): 8.5 mg/dL
- K (24 h): 4 meq/L
- LDH (24 h): 148.6 IU/L
- Na (24 h): 141 meq/L
- PL (24 h): 153 mg/dL
- RALB (24 h): 3.3 g/dL
- TBIL (24 h): 0.2 mg/dL
- TC (24 h): 88 mg/dL
- TG (24 h): 88.4 mg/dL
- TP (24 h): 5.4 g/dL
- gamma-GTP (24 h): 1.4 IU/L
